Test results published in patent US20250136586A1, “Substituted 7-(Pyrimidin-4-yl)Quinolin-4(1H)-One Compounds as Cyclin Dependent Kinase Inhibitors” (BeiGene, Ltd., priority 2022, published 2025).

Legend:
[1] = biological target: CDK4/Cyclin D1 (Homo sapiens (Human), UniProt P11802); assay: TR-FRET kinase inhibition assay, CDK4/Cyclin D1; format: biochemical; conditions: 1 mM ATP, 0.15 μM Rb (Ser780)-biotin substrate, read-out: CDK4D1 IC50
Method: Compounds disclosed herein were tested for inhibition of CDK4/Cyclin D1 or CDK6/Cyclin D3 kinase in an assay based on the time-resolved fluorescence-resonance energy transfer (TR-FRET) methodology. […] The kinase was incubated with compound for 60 minutes at room temperature and the reaction was initiated by the addition of ATP and Rb (Ser780)-biotin substrate. After reaction at room temperature for 120 minutes, an equal volume of stop/detection solution was added according to the manufacture's instruction (Cisbio Bioassays). The stop/detection solution contained Streptavidin-XL665 and Anti-pRb (Ser780) mAb-Eu Cryptate in Detection buffer (Cisbio Bioassays). […] The inhibition percentage of CDK4/Cyclin D1 or CDK6/Cyclin D3 kinase activity in presence of increasing concentrations of compounds was calculated based on the ratio of fluorescence at 665 nm to that at 620 nm. The IC50 for each compound was derived from fitting the data to the four-parameter logistic equation by Dotmatics.

[2] = biological target: CDK6/Cyclin D3 (Homo sapiens (Human), UniProt Q00534); assay: TR-FRET kinase inhibition assay, CDK6/Cyclin D3; format: biochemical; conditions: 1 mM ATP, 0.15 μM Rb (Ser780)-biotin substrate, read-out: CDK6D3 IC50
Sequence of CDK6/Cyclin D3 (Q00534 whole entry): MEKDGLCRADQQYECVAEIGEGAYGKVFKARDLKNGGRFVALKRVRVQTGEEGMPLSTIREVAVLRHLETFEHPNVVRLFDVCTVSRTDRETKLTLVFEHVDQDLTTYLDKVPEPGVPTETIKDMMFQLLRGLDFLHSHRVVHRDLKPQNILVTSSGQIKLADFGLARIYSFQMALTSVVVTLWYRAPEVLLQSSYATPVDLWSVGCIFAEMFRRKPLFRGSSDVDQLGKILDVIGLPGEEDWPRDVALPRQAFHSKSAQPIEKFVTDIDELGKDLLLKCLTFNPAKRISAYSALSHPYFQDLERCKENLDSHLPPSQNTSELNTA
Sequence of CDK6/Cyclin D3 (P30281 whole entry partner): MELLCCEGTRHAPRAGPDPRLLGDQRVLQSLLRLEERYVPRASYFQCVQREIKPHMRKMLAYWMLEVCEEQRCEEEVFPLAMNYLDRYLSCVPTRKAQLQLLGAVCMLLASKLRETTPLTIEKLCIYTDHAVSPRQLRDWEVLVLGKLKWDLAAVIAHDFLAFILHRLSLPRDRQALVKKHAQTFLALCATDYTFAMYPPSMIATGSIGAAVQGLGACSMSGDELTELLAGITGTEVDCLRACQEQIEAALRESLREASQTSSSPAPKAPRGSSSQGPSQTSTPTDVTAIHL
Method: Compounds disclosed herein were tested for inhibition of CDK4/Cyclin D1 or CDK6/Cyclin D3 kinase in an assay based on the time-resolved fluorescence-resonance energy transfer (TR-FRET) methodology. The assay was carried out in 384-well low volume black plates in a reaction mixture containing CDK4/Cyclin D1 or CDK6/Cyclin D3, 1 mM ATP, 0.15 μM Rb (Ser780)-biotin substrate and 0-10 μM compound in buffer containing 50 mM HEPES pH7.0, 0.02% NaN3, 0.01% BSA, 0.1 mM Orthovanadate, 50 mM MgCl2, 1 mM DTT and 0.005% Tween-20. The kinase was incubated with compound for 60 minutes at room temperature and the reaction was initiated by the addition of ATP and Rb (Ser780)-biotin substrate. After reaction at room temperature for 120 minutes, an equal volume of stop/detection solution was added according to the manufacture's instruction (Cisbio Bioassays). The stop/detection solution contained Streptavidin-XL665 and Anti-pRb (Ser780) mAb-Eu Cryptate in Detection buffer (Cisbio Bioassays). Plates were incubated at room temperature for 60 minutes, and the TR-FRET signals (ex337 nm, em665 nm/620 nm) were recorded on a PHERAstar FSX plate reader (BMG Labtech). The inhibition percentage of CDK4/Cyclin D1 or CDK6/Cyclin D3 kinase activity in presence of increasing concentrations of compounds was calculated based on the ratio of fluorescence at 665 nm to that at 620 nm. The IC50 for each compound was derived from fitting the data to the four-parameter logistic equation by Dotmatics.

Sequence of CDK4/Cyclin D1 (P11802 whole entry): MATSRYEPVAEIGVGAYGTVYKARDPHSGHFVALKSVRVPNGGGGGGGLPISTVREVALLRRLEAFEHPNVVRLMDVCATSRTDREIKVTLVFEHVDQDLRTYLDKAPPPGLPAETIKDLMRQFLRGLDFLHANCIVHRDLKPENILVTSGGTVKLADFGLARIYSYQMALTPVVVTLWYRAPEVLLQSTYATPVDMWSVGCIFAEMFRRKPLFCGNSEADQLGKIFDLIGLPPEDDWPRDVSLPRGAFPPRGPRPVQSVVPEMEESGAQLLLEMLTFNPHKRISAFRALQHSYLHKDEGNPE
Sequence of CDK4/Cyclin D1 (P24385 whole entry partner): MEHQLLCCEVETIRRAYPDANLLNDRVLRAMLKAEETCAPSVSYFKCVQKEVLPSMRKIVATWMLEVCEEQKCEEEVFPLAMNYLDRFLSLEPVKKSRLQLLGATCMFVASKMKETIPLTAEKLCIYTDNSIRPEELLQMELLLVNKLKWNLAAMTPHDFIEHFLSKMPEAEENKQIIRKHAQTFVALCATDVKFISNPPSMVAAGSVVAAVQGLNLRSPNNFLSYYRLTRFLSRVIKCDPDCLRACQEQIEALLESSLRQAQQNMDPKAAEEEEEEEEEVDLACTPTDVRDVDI

| Structure (SMILES) | IC50 [1] [nM] | IC50 [2] [nM] |
| --- | --- | --- |
| CC(C)n1c(CN2CCOCC2)cc(=O)c2ccc(-c3nc(N[C@@H]4CCOC[C@H]4O)ncc3Cl)cc21 [Example 26, 7-(5-chloro-2-(((3S,4R)-3-hydroxytetrahydro-2H-pyran-4-yl)amino)pyrimidin-4-yl)-1-isopropyl-2-(morpholinomethyl)quinolin-4(1H)-one] | 16 | 336 |
| CC(C)n1c(CN2CCO[C@H](C)C2)cc(=O)c2ccc(-c3nc(N[C@@H]4CCOC[C@H]4O)ncc3F)cc21 [Example 18, 7-(5-fluoro-2-(((3S,4R)-3-hydroxytetrahydro-2H-pyran-4-yl)amino)pyrimidin-4-yl)-1-isopropyl-2-(((R)-2-methylmorpholino)methyl)quinolin-4(1H)-one] | 27 | 1210 |
| CC(C)n1c(CN2CCC(F)(F)C2)cc(=O)c2ccc(-c3nc(N[C@@H]4CCOC[C@H]4O)ncc3F)cc21 [Example 80, 2-((3,3-difluoropyrrolidin-1-yl)methyl)-7-(5-fluoro-2-(((3S,4R)-3-hydroxytetrahydro-2H-pyran-4-yl)amino)pyrimidin-4-yl)-1-isopropylquinolin-4(1H)-one] | 22 | 616 |
| CC(C)n1c(CN[C@@H]2CCOC2)cc(=O)c2ccc(-c3nc(N[C@@H]4CCOC[C@H]4O)ncc3F)cc21 [Example 65, 7-(5-fluoro-2-(((3S,4R)-3-hydroxytetrahydro-2H-pyran-4-yl)amino)pyrimidin-4-yl)-1-isopropyl-2-((((R)-tetrahydrofuran-3-yl)amino)methyl)quinolin-4(1H)-one] | 31 | 744 |
| CC(C)n1c(CNC2CCCC2)cc(=O)c2ccc(-c3nc(N[C@@H]4CCOC[C@H]4O)ncc3F)cc21 [Example 66, 2-((cyclopentylamino)methyl)-7-(5-fluoro-2-(((3S,4R)-3-hydroxytetrahydro-2H-pyran-4-yl)amino)pyrimidin-4-yl)-1-isopropylquinolin-4(1H)-one] | 21 | 651 |
| CC(C)n1c(CNc2cnn(C)c2)cc(=O)c2ccc(-c3nc(N[C@@H]4CCOC[C@H]4O)ncc3F)cc21 [Example 78, 7-(5-fluoro-2-(((3S,4R)-3-hydroxytetrahydro-2H-pyran-4-yl)amino)pyrimidin-4-yl)-1-isopropyl-2-(((1-methyl-1H-pyrazol-4-yl)amino)methyl)quinolin-4(1H)-one] | 22 | 352 |
| CC(C)NCc1cc(=O)c2ccc(-c3nc(N[C@@H]4CCOC[C@H]4O)ncc3F)cc2n1C(C)C [Example 47, 7-(5-fluoro-2-(((3S,4R)-3-hydroxytetrahydro-2H-pyran-4-yl)amino)pyrimidin-4-yl)-1-isopropyl-2-((isopropylamino)methyl)quinolin-4(1H)-one] | 14 | 658 |
| CC(C)n1c(CN2C3CCCC2CC(O)C3)cc(=O)c2ccc(-c3nc(N[C@@H]4CCOC[C@H]4O)ncc3F)cc21 (stereo partly drawn) [Example 90, 7-(5-fluoro-2-(((3S,4R)-3-hydroxytetrahydro-2H-pyran-4-yl)amino)pyrimidin-4-yl)-2-(((1R,3R,5S)-3-hydroxy-9-azabicyclo[3.3.1]nonan-9-yl)methyl)-1-isopropylquinolin-4(1H)-one] | 5.7 | 251 |
| CC(C)n1c(CN2CC[C@@H](F)C2)cc(=O)c2cc(F)c(-c3nc(N[C@@H]4CCOC[C@H]4O)ncc3F)cc21 [Example 114, 6-fluoro-7-(5-fluoro-2-(((3S,4R)-3-hydroxytetrahydro-2H-pyran-4-yl)amino)pyrimidin-4-yl)-2-(((R)-3-fluoropyrrolidin-1-yl)methyl)-1-isopropylquinolin-4(1H)-one] | 40 | 640 |
| CC(C)n1c(CN2C3CCC2COC3)cc(=O)c2ccc(-c3nc(N[C@@H]4CCOC[C@H]4O)ncc3F)cc21 [Example 29, 2-((3-oxa-8-azabicyclo[3.2.1]octan-8-yl)methyl)-7-(5-fluoro-2-(((3S,4R)-3-hydroxytetrahydro-2H-pyran-4-yl)amino)pyrimidin-4-yl)-1-isopropylquinolin-4(1H)-one] | 19 | 361 |
| CC(C)n1c(CN2CCC[C@@]3(CCNC3=O)C2)cc(=O)c2ccc(-c3nc(N[C@@H]4CCOC[C@H]4O)ncc3F)cc21 [Example 104, (R)-7-((7-(5-fluoro-2-(((3S,4R)-3-hydroxytetrahydro-2H-pyran-4-yl)amino)pyrimidin-4-yl)-1-isopropyl-4-oxo-1,4-dihydroquinolin-2-yl)methyl)-2,7-diazaspiro[4.5]decan-1-one] | 24 | 139 |
| CC(=O)NCc1cc(=O)c2ccc(-c3nc(N[C@@H]4CCOC[C@H]4O)ncc3F)cc2n1C(C)C [Example 50, N-((7-(5-fluoro-2-(((3S,4R)-3-hydroxytetrahydro-2H-pyran-4-yl)amino)pyrimidin-4-yl)-1-isopropyl-4-oxo-1,4-dihydroquinolin-2-yl)methyl)acetamide] | 16 | 688 |

Now from value to compound:

| IC50 [1] [nM] | IC50 [2] [nM] | Structure (SMILES) |
| --- | --- | --- |
| 9.1 | 209 | CC(C)n1c(CNC2CC2)cc(=O)c2ccc(-c3nc(N[C@@H]4CCOC[C@H]4O)ncc3F)cc21 [Example 48, 2-((cyclopropylamino)methyl)-7-(5-fluoro-2-(((3S,4R)-3-hydroxytetrahydro-2H-pyran-4-yl)amino)pyrimidin-4-yl)-1-isopropylquinolin-4(1H)-one] |
| 6.2 | 211 | Cc1c(CNC2CC2)n(C(C)C)c2cc(-c3nc(N[C@@H]4CCOC[C@H]4O)ncc3F)ccc2c1=O [Example 109, 2-((cyclopropylamino)methyl)-7-(5-fluoro-2-(((3S,4R)-3-hydroxytetrahydro-2H-pyran-4-yl)amino)pyrimidin-4-yl)-1-isopropyl-3-methylquinolin-4(1H)-one] |
| 7.4 | 340 | CC(C)n1c(CN2[C@H](C)COC[C@@H]2C)cc(=O)c2ccc(-c3nc(N[C@@H]4CCOC[C@H]4O)ncc3F)cc21 [Example 107, 2-(((3R,5S)-3,5-dimethylmorpholino)methyl)-7-(5-fluoro-2-(((3S,4R)-3-hydroxytetrahydro-2H-pyran-4-yl)amino)pyrimidin-4-yl)-1-isopropylquinolin-4(1H)-one] |
| 4.1 | 131 | Cc1c(CN2CC[C@@H](F)C2)n(C(C)C)c2cc(-c3nc(N[C@@H]4CCOC[C@H]4O)ncc3F)ccc2c1=O [Example 92, 7-(5-fluoro-2-(((3S,4R)-3-hydroxytetrahydro-2H-pyran-4-yl)amino)pyrimidin-4-yl)-2-(((R)-3-fluoropyrrolidin-1-yl)methyl)-1-isopropyl-3-methylquinolin-4(1H)-one] |
| 5.9 | 265 | Cc1c(CN)n(C(C)C)c2cc(-c3nc(N[C@@H]4CCOC[C@H]4O)ncc3F)ccc2c1=O [Example 120, 2-(aminomethyl)-7-(5-fluoro-2-(((3S,4R)-3-hydroxytetrahydro-2H-pyran-4-yl)amino)pyrimidin-4-yl)-1-isopropyl-3-methylquinolin-4(1H)-one] |
| 13 | 481 | CC(C)n1c(CN2C[C@@H](O)[C@@H](F)C2)cc(=O)c2ccc(-c3nc(N[C@@H]4CCOC[C@H]4O)ncc3F)cc21 [Example 31, 7-(5-fluoro-2-(((3S,4R)-3-hydroxytetrahydro-2H-pyran-4-yl)amino)pyrimidin-4-yl)-2-(((3S,4R)-3-fluoro-4-hydroxypyrrolidin-1-yl)methyl)-1-isopropylquinolin-4(1H)-one] |
| 10 | 430 | CC(C)n1c(CN2C[C@@H]3C[C@H]2CO3)cc(=O)c2ccc(-c3nc(N[C@@H]4CCOC[C@H]4O)ncc3F)cc21 [Example 34, 2-(((1S,4S)-2-oxa-5-azabicyclo[2.2.1]heptan-5-yl)methyl)-7-(5-fluoro-2-(((3S,4R)-3-hydroxytetrahydro-2H-pyran-4-yl)amino)pyrimidin-4-yl)-1-isopropylquinolin-4(1H)-one] |
| 6.4 | 467 | CC(C)n1c(CN2CCC[C@]3(CCN(C)C3=O)C2)cc(=O)c2ccc(-c3nc(N[C@@H]4CCOC[C@H]4O)ncc3F)cc21 [Example 52, (S)-7-((7-(5-fluoro-2-(((3S,4R)-3-hydroxytetrahydro-2H-pyran-4-yl)amino)pyrimidin-4-yl)-1-isopropyl-4-oxo-1,4-dihydroquinolin-2-yl)methyl)-2-methyl-2,7-diazaspiro[4,5]decan-1-one] |
